Numbers after ± are expanded uncertainties.
How the values were obtained:
[1] = refractive index (Na D-line) (dimensionless); wn = mass fraction of the nth substance listed; conditions: 100 kPa, Liquid, Standard Abbe refractometry
[2] = wn = mass fraction of the nth substance listed; conditions: 100 kPa, Liquid, Vibrating tube method

O=S(=O)([O-])[O-].[Mg+2] [magnesium sulfate] + O
Conditions | mass density, [2] [kg/m3] | refractive index, [1]
288.15 K, w1 = 0.2409 | 1274.47 ± 1.1 | 1.384 ± 0.002
298.15 K, w1 = 0.2768 | 1302.41 ± 1.1 | 1.3895 ± 0.0021
308.15 K, w1 = 0.2974 | 1325.91 ± 1.1 | 1.3902 ± 0.0021
